We go through 15 compounds from patent publication US11702392B2, “Pyrimidinone derivatives as SHP2 antagonists” (MERCK PATENT GMBH, priority 2019, dated 2023).

“Also recorded” adds a separate entry of the source.

Data set [1] addresses Full length SHP2 protein (Recombinant Human SHP-2) (Homo sapiens (Human), UniProt Q06124). Briefly: SHP2 biochemical assay (DiFMUP substrate, activating peptide IRS1_2pY). As to conditions: activating peptide IRS1_2pY 140 nM, 60 min.
Protocol: The inhibition of SHP2 by compounds of the invention was monitored using the surrogate substrate DiFMUP after protein activation by a peptide bearing two appropriately spaced phosphotyrosine. […] The generation of the DiFMU product by activated SHP2 was monitored through Fluorescence measurement with a PerkinElmer Envision reader. The inhibitor dose response curves were analyzed with Genedata Screener.
The next data set deals with HPAF-2 xenografts. As to conditions: 50 mg/kg compound 23B or 60 mg/kg RMC-4550 QD oral gavage, CB17.SCID mice.
Data set [2] can be described thus: Pharmacokinetics in female CD1 mice (oral / intravenous). As to conditions: mouse; for AUC ng/ml*h (normalized to 1 mp/k) / Cmax ng/mL (normalized to 1 mg/k): normalized to 1 mg/kg; for Fz: oral. Format: in vivo. On the procedure: Female CD1 mice (N=3) received a single oral (gavage) or a single intravenous (bolus) injection of compound. […] Consecutive blood samples were taken sub-lingually under isofluorane inhalation from animals after 0.083 (IV), 0.25, 0.5, 1, 2, 4, 6 and 24 h and were further processed to obtain plasma. Samples were protein precipitated and analysed by LC/MS/MS.

In a further data set the test system is pERK1/2 in KYSE520 cells. Nature of the data set: p-Erk cellular assay in KYSE520 (Mesoscale). Format: cell-based. The settings on record: Homo sapiens, KYSE-520, 2 h, read-out: pERK1/2 in Cell KYSE520 IC50. On the procedure:
The effect of SHP2 inhibitors on pERK level was assessed using phospho-specific antibody using Mesoscale quantification platform. For measuring change in pERK levels using mesoscale, 30,000 cells of KYSE520 cells were plated in 96-well tissue culture treated plate in 175 μl volume of media. After an overnight incubation at 37° C., various SHP2 inhibitors were added in different concentration to each well maintaining duplicate wells across plates and incubated with compounds for 2 h at 37° C. followed by a wash with ice cold PBS buffer. The cells were then lysed in lysis buffer and processed and analyzed for p-ERK/ERK as per manufacturer's instructions (Mesoscale discovery, cat No. […]-3).

Another data set relates to KYSE-520 xenografts. Nature of the data set: Kyse-520 xenograft (EGFR amplified esophageal cancer). The settings on record: H2D Rag2 mice. From the text: H2D Rag2 mice were inoculated with 5 million KYSE-520 cells mixed with matrigel.
In vivo efficacy of compound 74a in an EGFR amplified setting was investigated in Kyse-520 xenografts. H2D Rag2 mice were inoculated with 5 million KYSE-520 cells mixed with matrigel.

The target of data set [3] is Kv11.1 (hERG) ion channel (Homo sapiens (Human), UniProt Q12809). Briefly: hERG patch clamp in Kv11.1 (hERG) transfected HEK293 cells. Type of data set: cell-based. Here is the method: Inhibition of the ion channel hErg (or Kv11.1) current causes QT interval prolongation resulting in potentially fatal ventricular tachyarrhythmia called Torsade de Pointes.
hERG ion channel activity was assessed using a patch clamp technique in stable Kv11.1 (hERG) transfected human embryonic kidney cell line (HEK293). Whole cell recordings were carried out with an automated patch clamp device Patchliner™ from Nanion Technologies, Munich following manufacturer recommendation. Different concentrations of the test compound or reference, quinidine, were applied to whole cells suspension and current was measured using a pulse pattern with fixed amplitudes.

Another data set relates to EBC-1 xenografts. Briefly: EBC-1 xenograft (cMET amplified non-small cell lung cancer). Type of data set: in vivo. As to conditions: 100 mg/kg QD oral gavage, CD-1 nude mice. The source says:
CD-1 nude mice were inoculated with 5 million EBC-1 cells.

Another data set relates to MiaPaCa-2 xenografts. Type of data set: in vivo, mouse. The settings on record: 50 or 100 mg/kg QD oral gavage, H2D Rag2 mice. The source says: H2D Rag2 mice were inoculated with 3 million MiaPaCa-2 cells.
In a further data set the test system is U87-MG xenografts. Nature of the data set: U87-MG xenograft (PTEN LOF glioblastoma). Format: in vivo, mouse. The settings on record: 50 mg/kg QD oral gavage, CD-1 nude mice. The source says:
CD-1 nude mice were inoculated with 10 million U87-MG cells.

The target of data set [4] is auto-activated mutant protein SHP2 E76K (Homo sapiens (Human), UniProt Q06124, E76K). Nature of the data set: SHP2 E76K active mutant biochemical assay with and without activating peptide.
Protocol: The inhibition of SHP2 by compounds of the invention was monitored using the surrogate substrate DiFMUP after protein activation by a peptide bearing two appropriately spaced phosphotyrosine. Full length SHP2 protein (Recombinant HumanSHP-2, E. coli derived Ser2Arg593, N-terminal 6His tag from R&D systems; 0.0.24 nM) was incubated with activating peptide, IRSI_2pY (New England Peptide, 140 nM) and DiFMUP (molecular probes, 80 uM) at RT in buffer (HEPES pH 7.2 60 mM, DDT 5 mM, KCl 75 mM, NaCl 75 mM, EDTA 1 mM, Tween 20 0.05%) in presence of compound (10 concentrations range, top concentration 50 μM) for 60 min. The generation of the DiFMU product by activated SHP2 was monitored through Fluorescence measurement with a PerkinElmer Envision reader. The inhibitor dose response curves were analyzed with Genedata Screener.
In data set [5] the test system is MCP-1 production in U937 cells. Nature of the data set: Cytokine release assay: MCP-1 production in U937 cells stimulated with IL-6. Format: cell-based. Here is the method:
Selected compounds were tested in a cytokine release assay in monocytic cells (U937) to test their anti-inflammatory properties. Cells were plated in a 96-well cell culture plate using serum-free media. The cells were treated with indicated concentrations of SHP-2 inhibitors for 30 minutes followed by overnight stimulation with recombinant IL-6 (50 ng/mL). The MCP-1 production was measured in the culture supernatant using a MCP-1 AlphaLISA kit (Perkin Elmer).

Setting [6] is: 0.8, 2.5 or 8 mg/kg QD oral gavage.
[7] abbreviates: 10, 30 or 100 mg/kg QD oral gavage.

Full length SHP2 protein (Recombinant Human SHP-2), sequence (Q06124 2-593): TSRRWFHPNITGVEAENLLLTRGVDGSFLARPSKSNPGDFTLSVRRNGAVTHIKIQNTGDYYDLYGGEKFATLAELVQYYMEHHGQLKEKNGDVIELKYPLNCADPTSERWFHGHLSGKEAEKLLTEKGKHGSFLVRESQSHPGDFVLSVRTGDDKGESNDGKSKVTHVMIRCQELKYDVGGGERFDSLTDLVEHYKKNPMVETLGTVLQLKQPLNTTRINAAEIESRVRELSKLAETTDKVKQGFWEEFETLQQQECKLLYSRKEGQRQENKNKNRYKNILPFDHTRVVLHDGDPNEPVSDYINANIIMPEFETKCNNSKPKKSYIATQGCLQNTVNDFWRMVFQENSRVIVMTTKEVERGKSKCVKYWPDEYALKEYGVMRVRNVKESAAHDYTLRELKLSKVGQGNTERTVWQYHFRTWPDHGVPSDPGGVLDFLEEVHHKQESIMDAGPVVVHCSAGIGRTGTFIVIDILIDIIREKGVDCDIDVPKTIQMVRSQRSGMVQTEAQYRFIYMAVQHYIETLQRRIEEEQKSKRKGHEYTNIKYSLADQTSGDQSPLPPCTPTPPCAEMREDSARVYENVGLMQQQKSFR
auto-activated mutant protein SHP2 E76K, sequence (Q06124 whole entry E76K): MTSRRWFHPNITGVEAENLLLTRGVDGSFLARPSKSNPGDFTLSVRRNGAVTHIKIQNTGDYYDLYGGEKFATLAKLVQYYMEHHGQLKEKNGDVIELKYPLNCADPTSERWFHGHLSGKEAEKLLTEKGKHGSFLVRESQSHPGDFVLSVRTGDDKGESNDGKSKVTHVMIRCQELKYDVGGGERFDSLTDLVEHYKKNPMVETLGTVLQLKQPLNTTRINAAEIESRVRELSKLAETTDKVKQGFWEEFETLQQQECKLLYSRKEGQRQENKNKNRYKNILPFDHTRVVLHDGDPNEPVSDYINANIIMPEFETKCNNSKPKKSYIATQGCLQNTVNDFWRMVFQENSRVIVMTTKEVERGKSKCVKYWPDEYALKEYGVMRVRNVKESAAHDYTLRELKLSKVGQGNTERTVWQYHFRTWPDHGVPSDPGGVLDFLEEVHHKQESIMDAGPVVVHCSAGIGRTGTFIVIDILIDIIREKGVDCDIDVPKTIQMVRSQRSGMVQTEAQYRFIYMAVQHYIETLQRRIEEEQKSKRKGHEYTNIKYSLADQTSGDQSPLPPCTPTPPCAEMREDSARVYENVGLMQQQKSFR
Kv11.1 (hERG) ion channel, sequence (Q12809 whole entry): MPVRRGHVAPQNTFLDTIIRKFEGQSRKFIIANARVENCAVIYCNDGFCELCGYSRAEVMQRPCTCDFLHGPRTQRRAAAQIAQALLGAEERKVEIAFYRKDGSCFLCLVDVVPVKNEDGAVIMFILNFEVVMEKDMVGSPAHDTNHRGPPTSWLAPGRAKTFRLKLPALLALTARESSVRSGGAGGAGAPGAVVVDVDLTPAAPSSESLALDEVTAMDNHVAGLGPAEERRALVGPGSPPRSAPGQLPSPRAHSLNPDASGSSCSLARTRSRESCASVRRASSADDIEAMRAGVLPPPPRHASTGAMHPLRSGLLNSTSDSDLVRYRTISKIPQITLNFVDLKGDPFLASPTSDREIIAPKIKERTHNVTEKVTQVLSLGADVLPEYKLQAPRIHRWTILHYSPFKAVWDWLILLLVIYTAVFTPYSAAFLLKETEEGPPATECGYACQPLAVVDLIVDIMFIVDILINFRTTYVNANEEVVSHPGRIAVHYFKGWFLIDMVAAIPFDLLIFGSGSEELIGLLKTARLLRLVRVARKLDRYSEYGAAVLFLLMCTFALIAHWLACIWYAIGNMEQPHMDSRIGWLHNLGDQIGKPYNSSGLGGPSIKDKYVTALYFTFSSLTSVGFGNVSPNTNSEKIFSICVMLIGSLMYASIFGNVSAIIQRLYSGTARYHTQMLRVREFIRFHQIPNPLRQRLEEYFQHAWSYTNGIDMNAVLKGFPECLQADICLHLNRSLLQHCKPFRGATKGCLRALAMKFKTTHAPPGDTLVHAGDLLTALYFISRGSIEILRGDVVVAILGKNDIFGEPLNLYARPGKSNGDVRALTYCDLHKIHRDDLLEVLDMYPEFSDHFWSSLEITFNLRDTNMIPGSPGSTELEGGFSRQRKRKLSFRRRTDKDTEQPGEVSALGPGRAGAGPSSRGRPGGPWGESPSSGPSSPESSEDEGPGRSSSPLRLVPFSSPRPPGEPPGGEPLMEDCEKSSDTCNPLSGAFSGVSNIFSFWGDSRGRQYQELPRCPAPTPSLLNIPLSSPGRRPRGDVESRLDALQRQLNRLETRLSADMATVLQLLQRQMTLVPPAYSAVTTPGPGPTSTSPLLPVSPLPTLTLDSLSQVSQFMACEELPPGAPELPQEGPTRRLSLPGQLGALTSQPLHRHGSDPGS

Regarding `Cc1c(N2CCC3(CC2)Cc2ccccc2[C@@H]3N)nc(C)n(-c2cccc(Cl)c2Cl)c1=O` (atropisomer, axis not shown; (M)) [Compound 74c, (3M)-6-[(1R)-1-amino-1,3-dihydrospiro[indene-2,4′-piperidin]-1′-yl]-3-(2,3-dichlorophenyl)-2,5-dimethyl-3,4-dihydropyrimidin-4-one], the IC50 in [1] came to 250 nM.

Turning to `Cc1nc(N2CCC3(CC2)CO[C@@H](C)[C@H]3N)c(CO)nc1-c1cccc(Cl)c1Cl` [RMC-4550, reference compound], the tumor growth result with HPAF-2 xenografts is given as “Significant tumor inhibition”. In addition, in data set [2], the “AUC ng/ml*h (normalized to 1 mp/k)” value was determined as 735 ng·h/mL, the “Cmax ng/mL (normalized to 1 mg/k)” value is 85 ng/mL and the Fz amounted to 86%.

In the case of `Cc1c(N2CCC3(CCC[C@H]3N)CC2)nc(C)n(-c2cccc(Cl)c2Cl)c1=O` (single isomer, unassigned) [Compound 67b], the IC50 in the data set with pERK1/2 in KYSE520 cells is 198 nM.

Consider `Cc1c(N2CCC3(CCC[C@H]3N)CC2)nc(C)n(-c2cccc(Cl)c2Cl)c1=O` (single isomer, unassigned) [Compound 67a], for which the IC50 in [1] stood at 19000 nM.

For `Cc1c(N2CCC3(CCC[C@@H]3N)CC2)nc(N)n(-c2cccc(Cl)c2Cl)c1=O` (atropisomer, axis not shown; (M)) [Compound 78c, (3M)-2-amino-6-[(1S)-1-amino-8-azaspiro[4.5]decan-8-yl]-3-(2,3-dichlorophenyl)-5-methyl-3,4-dihydropyrimidin-4-one], in data set [1], the IC50 is 2100 nM.

`Cc1c(N2CCC3(CC2)Cc2ccccc2[C@H]3N)nc(C)n(-c2cccc(Cl)c2Cl)c1=O` [Compound 74a, (3M)-6-[(1S)-1-amino-1,3-dihydrospiro[indene-2,4′-piperidin]-1′-yl]-3-(2,3-dichlorophenyl)-2,5-dimethyl-3,4-dihydropyrimidin-4-one]: in data set [1], the IC50 is 1 nM. In the data set with KYSE-520 xenografts (setting [6]), the tolerability result is “well tolerated” and the tumor growth entry was “reduce growth of the tumor a significant amount; also recorded: dose-dependent significant tumor growth inhibition”. Also, in data set [2], the “AUC ng/ml*h (normalized to 1 mp/k)” value turned out to be 2108 ng·h/mL, the “Cmax ng/mL (normalized to 1 mg/k)” value stood at 129 ng/mL and the Fz is given as 100%.

Regarding `Cc1c(N2CCC3(CC2)Cc2ncccc2[C@H]3N)nc(C)n(-c2cccc(Cl)c2Cl)c1=O` (single isomer, unassigned) [Compound 66b], the “Split between hErg and cell activity Ki (patch Clamp)/IC50 (KYSE)” value in data set [3] turned out to be 580. For the same compound, in [2], the “AUC ng/ml*h (normalized to 1 mp/k)” value was 2387 ng·h/mL, the “Cmax ng/mL (normalized to 1 mg/k)” value came out at 367 ng/mL and the Fz came to 100%.

Turning to `Cc1nc(N2CCC3(CC2)CO[C@@H](C)[C@H]3N)cc(=O)n1-c1cccc(Cl)c1Cl` (single isomer, unassigned) [Compound 3b], in data set [2], the “AUC ng/ml*h (normalized to 1 mp/k)” value was determined as 1765 ng·h/mL, the “Cmax ng/mL (normalized to 1 mg/k)” value was 223 ng/mL and the Fz was 85%.

On to `Cc1c(N2CCC3(CC2)c2ncccc2C[C@H]3N)nc(C)n(-c2cccc(Cl)c2Cl)c1=O` [Compound 75, (3M)-6-[(6R)-6-amino-5,6-dihydrospiro[cyclopenta[b]pyridine-7,4′-piperidin]-1′-yl]-3-(2,3-dichlorophenyl)-2,5-dimethyl-3,4-dihydropyrimidin-4-one], for which the IC50 with pERK1/2 in KYSE520 cells was 824 nM; in data set [1], 120 nM.

For the compound `Cc1c(N2CCC3(CC2)CO[C@@H](C)[C@H]3N)nc(C)n(-c2cccc(Cl)c2Cl)c1=O` (single isomer, unassigned) [Compound 23b], the tolerability result in the data set with EBC-1 xenografts, in the data set with HPAF-2 xenografts, in the data set on MiaPaCa-2 xenografts and in the data set on KYSE-520 xenografts (setting [7]) was “well tolerated” each time. Besides, the tumor growth result is recorded as “reduces tumor growth; also recorded: Significant tumor growth inhibition” in the data set on EBC-1 xenografts, “Significant tumor inhibition” in the data set with HPAF-2 xenografts, “reduces tumor size as compared to baseline; also recorded: Tumor regression” in the data set on U87-MG xenografts and “reduce growth of the tumor a significant amount; also recorded: dose-dependent significant tumor growth inhibition” with KYSE-520 xenografts (setting [7]). Moreover, the “AUC ng/ml*h (normalized to 1 mp/k)” value in data set [2] came out at 1222 ng·h/mL. In addition, the “Cmax ng/mL (normalized to 1 mg/k)” value in data set [2] stood at 177 ng/mL. In data set [2], this compound returned a Fz of 100%. In addition, the IC50 in [4] was 12000 nM.

Turning to `Cc1c(N2CCC3(CC2)Oc2ccccc2[C@H]3N)nc(C)n(-c2cccc(Cl)c2Cl)c1=O` (single isomer, unassigned) [Compound 81b], in [2], the “AUC ng/ml*h (normalized to 1 mp/k)” value is 3270 ng·h/mL, the “Cmax ng/mL (normalized to 1 mg/k)” value is listed as 450 ng/mL and the Fz was determined as 48%.

In the case of `Cc1c(N2CCC3(CC2)Oc2cnccc2C3N)nc(C)n(-c2cccc(Cl)c2Cl)c1=O` (single isomer, unassigned) [Compound 80c], the IC50 in the data set with pERK1/2 in KYSE520 cells amounted to 420 nM.

As to `C[C@@H]1OCC2(CCN(c3cc(=O)n(-c4cccc(Cl)c4Cl)c(C(F)F)n3)CC2)[C@@H]1N` (atropisomer, axis not shown; (M)) [Compound 20b, (3M)-6-[(3S,4S)-4-amino-3-methyl-2-oxa-8-azaspiro[4.5]decan-8-yl]-3-(2,3-dichlorophenyl)-2-(difluoromethyl)-3,4-dihydropyrimidin-4-one], the IC50 in [1] was 1100 nM.

`Cc1c(N2CCC3(CC2)C[C@@H](C)C[C@H]3N)nc(C)n(-c2cccc(Cl)c2Cl)c1=O` [Compound 77, (3M)-6-[(1R,3R)-1-amino-3-methyl-8-azaspiro[4.5]decan-8-yl]-3-(2,3-dichlorophenyl)-2,5-dimethyl-3,4-dihydropyrimidin-4-one]: in data set [5], the “MCP-1 production (FIG. 1)” value was “suppressed MCP-1 production”.

With `Cc1c(N2C[C@H]3CC(CO)C[C@@]3(CN)C2)nc(C)n(-c2cccc(Cl)c2Cl)c1=O` (stereo partly drawn) [Compound 101, (3M)-6-[(3aR,6aS)-3a-(aminomethyl)-5-(hydroxymethyl)-octahydrocyclopenta[c]pyrrol-2-yl]-3-(2,3-dichlorophenyl)-2,5-dimethyl-3,4-dihydropyrimidin-4-one], in data set [1], the IC50 came to 230 nM.
